Measurements as given in patent US20030162838A1, “Bactericide, antiseptic, dermally applicable composition, washing composition, antibacterial fiber aggregate, method for eradicating a microorganism, and method for inhibiting the proliferation of a microorgamism” (Ajinomoto Co., Inc., priority 2001, published 2003).
Entries after “also recorded” stand apart in the source; their conditions may differ.

Tests used:
Type in all cases: cell-based
[1] = test system: Propionibacterium acnes (ATCC6919); assay: Antibacterial activity evaluation, agar dilution MIC; settings: GAM agar medium, 35° C. for 48 hours (anaerobic incubation)
Excerpt: (§1) 4-Guanidinobutyldodecanamide hydrochloride (LAG-HCl) which is a salt of an amide group-containing guanidine derivative and N-cocoyl-L-arginine ethyl ester-DL-pyrrolidone carboxylate which is an N-long chain acyl basic amino acid derivative were examined for their concentrations at which the growth of each test strain was inhibited completely (MIC).
(§2) The test strains employed were Escherichia coli (ATCC8739), Pseudomonas aeruginosa (ATCC9027), Staphylococcus aureus (ATCC6538), Streptococcus mutans (ATCC35275), Propionibacterium acnes (ATCC6919), Candida albicans (ATCC10231), Aspergillus niger (ATCC16404), Trichophyton mentagrophytes (ATCC11480) and Malassezia furfur (ATCC14521).
(§3) A bacterial cell suspension of E.coli, P.aeruginosa, S.aureus and S.mutans was obtained by incubation in a sensitive broth medium at 35° C. for 20 hours. The bacterial cell suspension of P.acnes was obtained by anaerobic incubation in a GAM agar medium at 35° C. for 20 hours followed by collecting cells with a platinum loop spatula followed by suspending the cells in a sterilized physiological saline at a cell density at about 10^8 cells/ml. The bacterial cell suspension of C.albicans was obtained by incubation in a potato dextrose agar medium at 25° C. for 48 hours followed by collecting cells with a platinum loop spatula followed by suspending the cells in a sterilized physiological saline at a cell density at about 10^6 cells/ml. The bacterial cell suspension of A.niger was obtained by incubation in a potato dextrose agar medium at 25° C. for 7 days followed by collecting cells with a platinum loop spatula followed by suspending the cells in a sterilized physiological saline followed by filtration through a sterilized gauze to adjust at a cell density at about 10^6 cells/ml. The bacterial cell suspension of T.mentagrophytes was obtained by incubation in a Sabouraud's agar medium at 25° C. for 7 days followed by collecting spores and hyphae with a platinum loop spatula followed by suspending the cells in a sterilized physiological saline followed by pelletizing using a homogenizer to adjust at a cell density at about 10^6 cells/ml. The bacterial cell suspension of M.furfur was obtained by incubation in an YMO agar medium at 25° C. for 7 days followed by suspending the test strain in a sterilized phosphate-buffered physiological saline at a cell density at about 10^6 cells/ml.
(§4) To obtain an antibacterial activity assay sample, 4-guanidinobutyldodecanamide hydrochloride was dissolved in ethylene glycol at 2% which was used as a mother liquor which was diluted with water subsequently. N-cocoyl-L-arginine ethyl ester-DL-pyrrolidone carboxylate was dissolved in water to prepare a test solution. The respective minimum growth inhibition concentration at which no microbial growth was observed was determined (μg/ml).
(§5) The agar medium (19 ml) was dissolved once and then kept at 50° C., and to this solution 1 ml of each diluted […] was added until reaching the intended concentration and mixed thoroughly and then solidified.
(§6) Subsequently, the cell suspension of each test strain was sampled using a platinum loop spatula, with which an about 1 cm line was drawn on the antibacterial agent-supplemented agar plate. Each plate was incubated at the respective temperature for the respective time period shown below. […]
(§7) For E.coli, P.aeruginosa, S.aureus, S.mutans, P.acnes, C.albicans, A.niger, T.mentagrophytes, M.furfur, the respective agar medium indicated in the Table 1 shown above was shown. […]

[2] = test system: Streptococcus mutans (ATCC35275); assay: as above; settings: Muller-Hinton agar medium, 35° C. for 48 hours
Excerpt: as §1, §2, §3, §4, §5, §6, §7

[3] = test system: Staphylococcus aureus (ATCC6538); assay: as above; settings: Muller-Hinton agar medium, 35° C. for 48 hours
Excerpt: as §1, §2, §3, §4, §5, §6, §7

[4] = test system: Trichophyton mentagrophytes (ATCC11480); assay: as above; settings: Sabouraud's agar medium, 25° C. for 7 days
Excerpt: as §1, §2, §3, §4, §5, §6, §7

[5] = test system: Escherichia coli (ATCC8739); assay: as above; settings: Muller-Hinton agar medium, 35° C. for 48 hours
Excerpt: as §1, §2, §3, §4, §5, §6, §7

[6] = test system: Candida albicans (ATCC10231); assay: as above; settings: Potato dextrose agar medium, 25° C. for 48 hours
Excerpt: as §1, §2, §3, §4, §5, §6, §7

[7] = test system: Malassezia furfur (ATCC14521); assay: as above; settings: YMO agar medium, 25° C. for 7 days
Excerpt: as §1, §2, §3, §4, §5, §6, §7

[8] = test system: Pseudomonas aeruginosa (ATCC9027); assay: as above; settings: Muller-Hinton agar medium, 35° C. for 48 hours
Excerpt: as §1, §2, §3, §4, §5, §6, §7

[9] = test system: Aspergillus niger (ATCC16404); assay: as above; settings: Potato dextrose agar medium, 25° C. for 5 days
Excerpt: as §1, §2, §3, §4, §5, §6, §7

test strains = assay: Antibacterial activity evaluation, overall verdict over all test strains; settings: summary of the MIC tables
Excerpt: as §1, §2, §4
(§8) In order to evaluate the contribution of acyl moiety to the antibacterial activity in amido group-containing guanidine derivatives, 4-guanidinobutyldecanamide acetate (DAG-AcOH), 4-guanidinobutyldodecanamide acetate (LAG-AcOH), 4-guanidinobutymyristilamide acetate (MAG-AcOH), 4-guanidinobutylpalmitylamide acetate (PAG-AcOH) were examined for their concentrations at which the growth of each test strain was inhibited completely (MIC).
as §2, with “aeruglnosa” for “aeruginosa”, “(ATCC11480),” for “(ATCC11480) and”, “(ATCC14521), MRSA and Cladosporium cladosporioides (IFO6348).” for “(ATCC14521).”
(§9) The respective minimum growth inhibition concentration at which no microbial growth was observed was determined (Table 4).

[10] = test system: Cladosporium cladosporioides (IFO6348); assay: Antibacterial activity evaluation, agar dilution MIC; settings: Potato dextrose agar medium, 25° C. for 5 days
Excerpt: as §8
as §2, with “aeruglnosa” for “aeruginosa”, “(ATCC11480),” for “(ATCC11480) and”, “(ATCC14521), MRSA and Cladosporium cladosporioides (IFO6348).” for “(ATCC14521).”
The bacterial cell suspension of Cladosporium cladosporioides was obtained by incubation in a potato dextrose agar medium at 25° C. for 7 days followed by collecting cells with a platinum loop spatula followed by suspending […] the cells in a sterilized physiological saline followed by filtration through a sterilized gauze to adjust at a cell density at about 10^6 cells /ml.
(§10) To obtain an antibacterial activity assay sample, each compound was dissolved in water to prepare a test solution, which was used as a mother liquor which was diluted with water subsequently.
as §9
(§11) The agar medium (19 ml) was dissolved once and then kept at 50° C., and to this solution 1 ml of each diluted […] was added until reaching the intended concentration and mixed thoroughly and solidified.
(§12) Subsequently, the cell suspension of each test strain was sampled using a platinum loop spatula, with which an about 1 cm line was drawn on the antibacterial agent-supplemented agar plate. Each plate was incubated at the respective temperature for the respective time period shown below.

MRSA = assay: as above; settings: Muller-Hinton agar medium, 35° C. for 48 hours
Excerpt: as §8
as §2, with “aeruglnosa” for “aeruginosa”, “(ATCC11480),” for “(ATCC11480) and”, “(ATCC14521), MRSA and Cladosporium cladosporioides (IFO6348).” for “(ATCC14521).”
The bacterial cell suspension of MRSA was obtained by incubation in a sensitive broth medium at 35° C. for 20 hours.
as §10, §9, §11, §12

Compound	MIC, P. acnes [1]	MIC, S. mutans [2]	MIC, S. aureus [3]	MIC, T. mentagrophytes [4]	MIC, E. coli [5]	MIC, C. albicans [6]	MIC, M. furfur [7]	MIC, P. aeruginosa [8]	MIC, A. niger [9]	antibacterial activity against any of the test strains (verdict in words) (test strains)	MIC, C. cladosporioides [10]	MIC, MRSA (MRSA)	antibacterial activity against any of the test strains (verdict in words) (test strains; acetate)
4-Guanidinobutyldodecanamide hydrochloride [LAG-HCl]	7.5 to 10 µg/mL	5 to 7.5 µg/mL	7.5 to 10 µg/mL	75 to 100 µg/mL	75 to 100 µg/mL	500 to 750 µg/mL	100 to 150 µg/mL	75 to 100 µg/mL	200 to 300 µg/mL	satisfactory antibacterial activity	–	–	–
CC(=O)O.CCCCCCCCCC(=O)NCCCCNC(=N)N [DAG-AcOH, 4-guanidinobutyldecanamide acetate]	30 to 50 µg/mL	20 to 30 µg/mL	30 to 50 µg/mL	75 to 100 µg/mL	150 to 200 µg/mL	300 to 500 µg/mL	50 to 75 µg/mL	200 to 300 µg/mL	300 to 500 µg/mL	satisfactory antibacterial activity	200 to 300 µg/mL	50 to 75 µg/mL	–
CC(=O)O.CCCCCCCCCCCC(=O)NCCCCNC(=N)N [LAG-AcOH, 4-guanidinobutyldodecanamide acetate]	10 to 15 µg/mL	5 to 7.5 µg/mL	2 to 3 µg/mL	30 to 50 µg/mL	30 to 50 µg/mL	300 to 500 µg/mL	50 to 75 µg/mL	75 to 100 µg/mL	200 to 300 µg/mL	–	150 to 200 µg/mL	10 to 15 µg/mL	satisfactory antibacterial activity; also recorded: the best antibacterial activity
CC(=O)O.CCCCCCCCCCCCCC(=O)NCCCCN=C(N)N [MAG-AcOH, 4-guanidinobutymyristilamide acetate]	10 to 15 µg/mL	3 to 5 µg/mL	3 to 5 µg/mL	75 to 100 µg/mL	50 to 75 µg/mL	500 to 750 µg/mL	100 to 150 µg/mL	300 to 500 µg/mL	300 to 500 µg/mL	satisfactory antibacterial activity	200 to 300 µg/mL	10 to 15 µg/mL	–
N-cocoyl-L-arginine ethyl ester-DL-pyrrolidone carboxylate [CAE, reference compound]	20 to 30 µg/mL	5 to 7.5 µg/mL	5 to 7.5 µg/mL	100 to 150 µg/mL	75 to 100 µg/mL	300 to 500 µg/mL	75 to 100 µg/mL	200 to 300 µg/mL	300 to 500 µg/mL	satisfactory antibacterial activity	–	–	–
